Laboratory results as given in patent US6358934B1, “Anti-retroviral activity of 2′,3′-dideoxy-3′-fluoronucleosides” (Medivir AB, priority 1986, dated 2002).

Assays:
[1] = test system: HIV (HTLV-III/LAV) in H9 cells; assay: Expressed reverse transcriptase activity in HIV-infected H9 cell cultures; format: cell-based
Method: The cells were then pelleted and dispersed in 2.5 ml phosphate buffered saline (PBS) including 2 μg/ml Polybrene. After incubation for 30 min the cells were pelleted and infected with HIV. After an adsorption period of 1 hour the cells were pelleted and washed once with 2.5 ml PBS. […] Samples for reverse transcriptase activity tests were taken as indicated.
1.3 ml samples from the supernatant of each culture were centrifuged at 18 000 rpm in a 55-34 rotor for 1.5 hours and the virus pellet resuspended in 100 μl buffer containing 50 mM Tris-HCl, pH 7.5; 35 mM KCl; 4 mM DTT; 1 mM EDTA; 1.3% Triton X-100. 50 μl samples were taken to the reverse transcriptase activity tests and analyzed in a 100 μl reaction mixture containing 75 mM Tris-HCl, pH 8.0; 60 mM KCl; 6.2 mM MgCl2; 6 mM DTT; 0.5 mM EDTA; 0.65% Triton X-100, 100 μg/ml BSA; 25 μCi/ml ^3H-dTTP (spec activity 80 Ci/mmol); 2.5 μg/ml (dT)12-18; and 2.0 μg/ml (rA)n. Incubation was for 1 hour at 37° C. and the TCA-insoluble product precipitated onto Whatman GF/A filter papers, washed and dried, and counted in a liquid scintillation counter.
The amounts of reverse transcriptase molecules and their total activity expressed in HIV-infected cell cultures is correlated to the amount of HIV particles present. The addition of an effective antiviral agent which inhibits the production of new HIV particles, also decreases the amount of reverse transcriptase molecules and is expressed as a decreased total activity.

[2] = target: DNA polymerase of hepatitis B virus (HBV) (Hepatitis B virus genotype D subtype ayw, UniProt P03156); assay: biochemical; settings: 3 hours incubation at 37° C., cpm vs water control
Chain of DNA polymerase of hepatitis B virus (HBV) (P03156 whole entry): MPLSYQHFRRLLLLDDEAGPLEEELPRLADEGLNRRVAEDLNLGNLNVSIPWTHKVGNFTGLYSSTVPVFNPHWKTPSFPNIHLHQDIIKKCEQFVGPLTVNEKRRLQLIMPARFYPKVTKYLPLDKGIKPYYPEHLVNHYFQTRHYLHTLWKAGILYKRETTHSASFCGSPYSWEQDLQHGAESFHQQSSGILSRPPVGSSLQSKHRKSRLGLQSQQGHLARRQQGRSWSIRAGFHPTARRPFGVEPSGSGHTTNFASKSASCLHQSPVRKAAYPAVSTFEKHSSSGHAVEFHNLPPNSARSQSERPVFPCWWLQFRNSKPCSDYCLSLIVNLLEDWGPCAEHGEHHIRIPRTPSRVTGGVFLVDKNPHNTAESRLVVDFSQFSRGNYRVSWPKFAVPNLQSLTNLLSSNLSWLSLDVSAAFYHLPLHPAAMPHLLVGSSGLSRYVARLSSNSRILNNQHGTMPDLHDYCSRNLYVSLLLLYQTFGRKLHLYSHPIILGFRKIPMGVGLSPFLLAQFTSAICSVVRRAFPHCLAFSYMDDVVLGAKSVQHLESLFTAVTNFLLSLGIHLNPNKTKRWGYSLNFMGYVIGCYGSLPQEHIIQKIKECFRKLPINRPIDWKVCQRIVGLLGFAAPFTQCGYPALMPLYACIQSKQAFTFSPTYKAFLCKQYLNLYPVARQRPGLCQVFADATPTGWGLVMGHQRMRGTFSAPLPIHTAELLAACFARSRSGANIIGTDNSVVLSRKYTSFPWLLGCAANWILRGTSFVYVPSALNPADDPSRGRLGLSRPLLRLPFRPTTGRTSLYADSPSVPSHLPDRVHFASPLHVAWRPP
Text: Since hepatitis B virus cannot be grown in cell cultures, a cell-free assay system of the hepatitis B virus DNA polymerase has been used to investigate the effect of 3′-deoxy-3′-fluorothymidine. 3′-Deoxy-3′-fluorothymidine in cells is transformed to 3′-deoxy-3′-fluorothymidine-5′-triphosphate.
The HBV associated DNA polymerase activity can be measured in vitro (Kaplan et al., J. Virol., 12, 995-1005, 1973). A slight modification of this method has been used to test the substance for inhibition of this DNA polymerase activity. (Nordenfelt E., Öberg, B., Helgstrand E. and Miller E. Acta path., Microbiol. Scand. Sect B, 88:169-175, 1980). With this assay the 3′-deoxy-3′-fluorothymidine-5′-triphosphate has been tested, instead of the prodrug 3′-deoxy-3′-fluorothymidine, to evaluate its potential against hepatitis B virus DNA polymerase.
3′-deoxy-3′-fluorothymidine-5′-triphosphate was added to the final concentrations of 0.01 μM, 0.05 μM, 0.1 μM, 0.5 μM and 1.0 μM in the reaction mixture. The inhibition is calculated after 3 hours incubation at 37° C. and based on cpm compared to control with added water.

[3] = target: T1, reverse transcriptase of HIV (HTLV-III/LAV) (Human immunodeficiency virus type 1 group M subtype B, UniProt P03366); assay: Cell-free assay of HIV reverse transcriptase; format: biochemical
T1 construct: reverse transcriptase from HIV (HTLV-III/LAV)
Method: A cell-free assay system has been used to investigate the inhibition of 3′-deoxy-3′-fluorothymidine on reverse transcriptase of HIV (HTLV-III/LAV). The assay was performed as described by Vrang et Öberg, Antimicrob. Agents Chemother. 29, 867-872 (1986). With this assay the 3′-deoxy-3′-fluoro-thymidine-5′-triphosphate has been tested, instead of the prodrug 3′-deoxy-3′-fluorothymidine to evaluate its potential against reverse transcriptase from HIV (HTLV-III/LAV).

Cc1cn([C@H]2C[C@H](F)[C@@H](CO)O2)c(=O)[nH]c1=O [3′-deoxy-3′-fluorothymidine]
Reverse transcriptase activity ([1]; 0.01 μM, 4 days post-infection, 0 μM control 0.9): 0.5 cpm × 10^−3
Reverse transcriptase activity ([1]; 0.01 μM, 8 days post-infection, 0 μM control 19): 1.3 cpm × 10^−3
Reverse transcriptase activity ([1]; 0.01 μM, 11 days post-infection, 0 μM control 17): 1.9 cpm × 10^−3
Reverse transcriptase activity ([1]; 0.01 μM, 15 days post-infection, 0 μM control 11): 2.7 cpm × 10^−3
Reverse transcriptase activity ([1]; 0.01 μM, 18 days post-infection, 0 μM control 27): 28 cpm × 10^−3
Reverse transcriptase activity ([1]; 0.01 μM, 22 days post-infection, 0 μM control 46): 52 cpm × 10^−3
Reverse transcriptase activity ([1]; 0.01 μM, 29 days post-infection, 0 μM control 16): 21 cpm × 10^−3
effect on reverse transcriptase activity of HIV in infected H9 cells (in words) ([1]; 0.01 μM, up to 11 days): enzyme activity was not detected
Reverse transcriptase activity ([1]; 0.05 μM, 4 days post-infection, 0 μM control 0.9): 0.3 cpm × 10^−3
Reverse transcriptase activity ([1]; 0.05 μM, 8 days post-infection, 0 μM control 19): 0.3 cpm × 10^−3
Reverse transcriptase activity ([1]; 0.05 μM, 11 days post-infection, 0 μM control 17): 0.4 cpm × 10^−3
Reverse transcriptase activity ([1]; 0.05 μM, 15 days post-infection, 0 μM control 11): 0.6 cpm × 10^−3
Reverse transcriptase activity ([1]; 0.05 μM, 18 days post-infection, 0 μM control 27): 0.5 cpm × 10^−3
Reverse transcriptase activity ([1]; 0.05 μM, 22 days post-infection, 0 μM control 46): 1.6 cpm × 10^−3
Reverse transcriptase activity ([1]; 0.05 μM, 29 days post-infection, 0 μM control 16): 3.1 cpm × 10^−3
effect on reverse transcriptase activity of HIV in infected H9 cells (in words) ([1]; 0.05 μM, up to 22 days): no significant enzyme activity was detected
effect on reverse transcriptase activity of HIV in infected H9 cells (in words) ([1]; 0.1 μM and higher concentrations, during at least 29 days): completely prevents the enzyme activity
Reverse transcriptase activity ([1]; 0.1 μM, 4 days post-infection, 0 μM control 0.9): 0.2 cpm × 10^−3
Reverse transcriptase activity ([1]; 0.1 μM, 8 days post-infection, 0 μM control 19): 0.2 cpm × 10^−3
Reverse transcriptase activity ([1]; 0.1 μM, 11 days post-infection, 0 μM control 17): 0.5 cpm × 10^−3
Reverse transcriptase activity ([1]; 0.1 μM, 15 days post-infection, 0 μM control 11): 0.4 cpm × 10^−3
Reverse transcriptase activity ([1]; 0.1 μM, 18 days post-infection, 0 μM control 27): 0.4 cpm × 10^−3
Reverse transcriptase activity ([1]; 0.1 μM, 22 days post-infection, 0 μM control 46): 0.2 cpm × 10^−3
Reverse transcriptase activity ([1]; 0.1 μM, 29 days post-infection, 0 μM control 16): 0.2 cpm × 10^−3
Reverse transcriptase activity ([1]; 0.5 μM, 4 days post-infection, 0 μM control 0.9): 0.3 cpm × 10^−3
Reverse transcriptase activity ([1]; 0.5 μM, 8 days post-infection, 0 μM control 19): 0.3 cpm × 10^−3
Reverse transcriptase activity ([1]; 0.5 μM, 11 days post-infection, 0 μM control 17): 0.5 cpm × 10^−3
Reverse transcriptase activity ([1]; 0.5 μM, 15 days post-infection, 0 μM control 11): 0.3 cpm × 10^−3
Reverse transcriptase activity ([1]; 0.5 μM, 18 days post-infection, 0 μM control 27): 0.6 cpm × 10^−3
Reverse transcriptase activity ([1]; 0.5 μM, 22 days post-infection, 0 μM control 46): 0.1 cpm × 10^−3
Reverse transcriptase activity ([1]; 0.5 μM, 29 days post-infection, 0 μM control 16): 0.2 cpm × 10^−3
Reverse transcriptase activity ([1]; 1.0 μM, 4 days post-infection, 0 μM control 0.9): 0.3 cpm × 10^−3
Reverse transcriptase activity ([1]; 1.0 μM, 8 days post-infection, 0 μM control 19): 0.2 cpm × 10^−3
Reverse transcriptase activity ([1]; 1.0 μM, 11 days post-infection, 0 μM control 17): 0.5 cpm × 10^−3
Reverse transcriptase activity ([1]; 1.0 μM, 15 days post-infection, 0 μM control 11): 0.4 cpm × 10^−3
Reverse transcriptase activity ([1]; 1.0 μM, 18 days post-infection, 0 μM control 27): 0.5 cpm × 10^−3
Reverse transcriptase activity ([1]; 1.0 μM, 22 days post-infection, 0 μM control 46): 0.1 cpm × 10^−3
Reverse transcriptase activity ([1]; 1.0 μM, 29 days post-infection, 0 μM control 16): 0.2 cpm × 10^−3

Cc1cn([C@H]2C[C@H](F)[C@@H](COP(=O)(O)OP(=O)(O)OP(=O)(O)O)O2)c(=O)[nH]c1=O [3′-deoxy-3′-fluorothymidine-5′-triphosphate]
inhibition at 0.01 µM ([2]; 0.01 μM): 17%
inhibition at 0.05 µM ([2]; 0.05 μM): 17%
inhibition at 0.1 µM ([2]; 0.1 μM): 39%
inhibition at 0.5 µM ([2]; 0.5 μM): 79%
% inhibition of HIV (HTLV-III/LAV) reverse transcriptase ([3]; 0.01 μM): 12%
% inhibition of HIV (HTLV-III/LAV) reverse transcriptase ([3]; 0.05 μM): 27%
% inhibition of HIV (HTLV-III/LAV) reverse transcriptase ([3]; 0.1 μM): 38%
